Measurements: publication PMC10997755, “Discovery of a small-molecule inhibitor that traps Polθ on DNA and synergizes with PARP inhibitors” (Nature Communications, 2024)
Values joined by “and” are separate entries in the source; they are usually repeats but may differ in a detail not shown here. Equal values may be shown once.

Legend:
[1] = target: T1, Polκ (Homo sapiens, UniProt Q9UBT6); assay: Primer extension by recombinant Pols (selectivity); type: biochemical
T1 construct: gift: Dr. Arora (Fox Chase Cancer Center)
T1 sequence (Q9UBT6 1-870): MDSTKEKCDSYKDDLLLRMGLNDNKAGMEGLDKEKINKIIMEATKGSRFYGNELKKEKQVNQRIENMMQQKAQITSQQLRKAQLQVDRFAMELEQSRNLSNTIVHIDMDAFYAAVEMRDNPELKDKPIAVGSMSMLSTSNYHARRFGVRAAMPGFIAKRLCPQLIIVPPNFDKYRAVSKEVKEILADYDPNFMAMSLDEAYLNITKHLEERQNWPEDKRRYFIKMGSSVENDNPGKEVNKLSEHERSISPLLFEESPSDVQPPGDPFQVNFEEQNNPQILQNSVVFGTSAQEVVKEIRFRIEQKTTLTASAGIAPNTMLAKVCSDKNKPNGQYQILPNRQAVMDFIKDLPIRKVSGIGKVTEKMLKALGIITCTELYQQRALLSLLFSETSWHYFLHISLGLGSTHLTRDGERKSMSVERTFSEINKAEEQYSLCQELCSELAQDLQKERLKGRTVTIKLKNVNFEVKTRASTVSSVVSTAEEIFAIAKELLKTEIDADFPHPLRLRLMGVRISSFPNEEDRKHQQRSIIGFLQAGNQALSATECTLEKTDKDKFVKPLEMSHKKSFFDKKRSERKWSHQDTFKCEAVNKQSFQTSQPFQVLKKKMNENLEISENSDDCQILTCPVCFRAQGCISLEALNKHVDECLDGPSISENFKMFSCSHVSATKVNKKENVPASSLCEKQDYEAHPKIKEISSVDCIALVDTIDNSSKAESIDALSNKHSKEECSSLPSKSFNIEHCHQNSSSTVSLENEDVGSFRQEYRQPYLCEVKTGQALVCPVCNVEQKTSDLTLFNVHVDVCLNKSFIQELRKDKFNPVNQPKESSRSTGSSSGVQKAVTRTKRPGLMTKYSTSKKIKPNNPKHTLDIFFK

[2] = target: T2, Polθ-pol on DNA/RNA (Homo sapiens, UniProt O75417); assay: Relative rate of ddCMP addition on DNA/RNA; type: biochemical; settings: for Average % Extension (Single nt) / % Extension (Single nt) / % Extension of Control: RNA template; for Average % Extension (Single nt) / % Extension (Single nt): 2uM RTX-161; for Average % Extension (Single nt): average of 3 trials; for % Extension (Single nt) / % Extension of Control: single trials 1-3; for % Extension of Control: 2uM RTX-161 relative to DMSO
T2 construct: purified recombinant human Polθ-pol (comprising amino acid residues 1792–2590); made in house
T2 sequence (O75417 1792-2590): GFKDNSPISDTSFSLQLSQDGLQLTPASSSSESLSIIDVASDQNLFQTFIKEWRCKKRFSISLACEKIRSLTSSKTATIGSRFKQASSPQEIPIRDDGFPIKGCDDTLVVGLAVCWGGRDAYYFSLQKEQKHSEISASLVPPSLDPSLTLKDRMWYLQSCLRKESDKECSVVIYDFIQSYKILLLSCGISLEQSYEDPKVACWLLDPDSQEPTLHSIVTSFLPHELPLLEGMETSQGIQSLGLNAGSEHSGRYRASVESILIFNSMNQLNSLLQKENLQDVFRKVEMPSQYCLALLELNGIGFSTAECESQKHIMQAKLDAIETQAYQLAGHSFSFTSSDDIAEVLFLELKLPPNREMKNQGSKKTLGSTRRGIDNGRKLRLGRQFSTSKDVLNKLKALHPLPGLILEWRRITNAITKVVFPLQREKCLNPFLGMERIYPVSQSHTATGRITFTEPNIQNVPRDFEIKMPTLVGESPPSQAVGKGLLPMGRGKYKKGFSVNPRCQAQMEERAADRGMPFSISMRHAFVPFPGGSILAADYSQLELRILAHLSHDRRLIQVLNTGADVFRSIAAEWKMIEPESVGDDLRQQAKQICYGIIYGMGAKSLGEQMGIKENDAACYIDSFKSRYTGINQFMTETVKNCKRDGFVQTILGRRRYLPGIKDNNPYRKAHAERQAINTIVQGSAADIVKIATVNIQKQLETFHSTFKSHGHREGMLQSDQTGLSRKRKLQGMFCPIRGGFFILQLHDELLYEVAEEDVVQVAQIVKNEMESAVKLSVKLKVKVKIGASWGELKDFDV
Protocol: Relative rate of Polθ-pol dAMP addition. The relative rates of dAMP incorporation by Polq-pol in the presence of DMSO or MC160385 with various concentrations of dATP were measured using the following primer extension assay in vitro. 2 nM or Polθ-pol was incubated with 5’ ^32P-γ-ATP labeled 100 nM primer-template (RP469D/RP486) in 1X buffer (25 mM TrisHCl pH 7.8, 0.01% NP40, 10% glycerol, 1 mM DTT, 10 mM MgCl2, 0.1 mg/ml BSA) at room temp. 2.5% DMSO, 7.5 nM or 12 nM of MC160385 was added. Reactions were than initiated by the addition of 20, 50, 100, 200, or 300 μM dATP at room temp. Aliquots of the reactions were removed and terminated by the addition of 50 mM EDTA at 3, 3.5, 4 and 5 min after the reaction was initiated. Radio-labeled DNA was then resolved via denaturing 20% PAGE and visualized by Typhoon PhosphorImager (GE Amersham). Rates of dAMP incorporation were calculated from % extension of the prime-template which was determined using ImageJ software. Relative rate of ddCMP addition on DNA/DNA and DNA/RNA. 25 nM nucleic acid DNA/DNA or DNA/RNA primer-template (RP559/RP702 or RP559/RP702R) was mixed with 1X reaction buffer (20 mM TrisHCl pH 7.5, 0.01% NP-40, 0.5 mM DTT, 10% glycerol, 0.1 mg/ml BSA, 10 mM MgCl2) in the presence of 250 μM ddCTP at room temp. Next, 2 μM RTx-161 or 2.5% DMSO was added. Reactions were initiated by the addition of 10 nM Polθ-pol. Reaction aliquots were removed and terminated by the addition of 50 mM EDTA at the indicated time points. Radio-labeled DNA was then resolved via denaturing 20% PAGE and visualized by Typhoon PhosphorImager. Percent primer extension by single ddCMP addition at each time point was calculated from % extension of the prime-template which was determined using ImageJ software.

Structure (SMILES): CN(C(=O)Oc1c(N2CCN(CCO)C2=O)cc(C(F)(F)F)cc1C(F)(F)F)c1ccc(F)cc1 [RTx-161]
- % Full Extension ([1]; Pol Kappa): 89.30%
- % Inhibition Compared to Control ([1]; Pol Kappa): 0.85%
- % Relative Maximum Extension ([1]; Pol Kappa): 99.15%
- inhibition of primer extension ([1]; selectivity panel, Pol named in Supplementary Fig. 1h): no inhibition
- inhibition of single nucleotide incorporation on DNA/RNA ([2]; 2 μM RTx-161, open conformation): failed to significantly inhibit
- Average % Extension (Single nt) ([2]; Time 0): 0.00%
- % Extension (Single nt) ([2]; Time 0): 0.00%
- Average % Extension (Single nt) ([2]; Time 5): 4.59%
- % Extension (Single nt) ([2]; Time 5): 2.50% and 5.50% and 5.76%
- Average % Extension (Single nt) ([2]; Time 10): 7.95%
- % Extension (Single nt) ([2]; Time 10): 4.80% and 9.47% and 9.59%
- Average % Extension (Single nt) ([2]; Time 20): 16.13%
- % Extension (Single nt) ([2]; Time 20): 15.85% and 16.30% and 16.24%
- Average % Extension (Single nt) ([2]; Time 40): 27.98%
- % Extension (Single nt) ([2]; Time 40): 29.57% and 26.15% and 28.23%
- % Extension of Control ([2]; Time 5): 47.30% and 65.75% and 74.39%
- % Extension of Control ([2]; Time 10): 39.83% and 67.79% and 72.59%
- % Extension of Control ([2]; Time 20): 72.60% and 71.13% and 71.98%
- % Extension of Control ([2]; Time 40): 79.52% and 73.56% and 82.47%
